Data from ChEMBL document CHEMBL3351695, “Synthesis of novel 10-hydroxycamptothecin derivatives utilizing topotecan hydrochloride as ortho-quinonemethide precursor” (Bioorg Med Chem, 2015).
Structures can show the parent of a compound that is named as a salt. Activity calls are given as the source filed them. No cut-off for these calls is given here.

Legend:
SGC-7901 = assay: Ratio of 10-hydroxycamptothecin IC50 to compound IC50 for human SGC7901 cells after 48 hrs by CCK8 assay; assay type: functional
KB = assay: Antiproliferative activity against human KB cells after 48 hrs by CCK8 assay; assay type: functional, cell-based
HepG2 = assay: Antiproliferative activity against human HepG2 cells after 48 hrs by CCK8 assay; assay type: functional, cell-based; conditions: HepG2, 48 h
[1] = Antiproliferative activity against human HCT8 cells after 48 hrs by CCK8 assay; assay type: functional, cell-based; conditions: HCT-8, 48 h
[2] = Antiproliferative activity against human SGC7901 cells after 48 hrs by CCK8 assay; assay type: functional, cell-based; conditions: SGC-7901, 48 h
[3] = target: T1, DNA topoisomerase 1 (Homo sapiens) (UniProt P11387); assay: Inhibition of purified Topo 1 (unknown origin)-mediated supercoiled pBR322 DNA cleavage at 12.5 uM after 15 mins by agarose gel electrophoresis
T1 sequence (whole entry): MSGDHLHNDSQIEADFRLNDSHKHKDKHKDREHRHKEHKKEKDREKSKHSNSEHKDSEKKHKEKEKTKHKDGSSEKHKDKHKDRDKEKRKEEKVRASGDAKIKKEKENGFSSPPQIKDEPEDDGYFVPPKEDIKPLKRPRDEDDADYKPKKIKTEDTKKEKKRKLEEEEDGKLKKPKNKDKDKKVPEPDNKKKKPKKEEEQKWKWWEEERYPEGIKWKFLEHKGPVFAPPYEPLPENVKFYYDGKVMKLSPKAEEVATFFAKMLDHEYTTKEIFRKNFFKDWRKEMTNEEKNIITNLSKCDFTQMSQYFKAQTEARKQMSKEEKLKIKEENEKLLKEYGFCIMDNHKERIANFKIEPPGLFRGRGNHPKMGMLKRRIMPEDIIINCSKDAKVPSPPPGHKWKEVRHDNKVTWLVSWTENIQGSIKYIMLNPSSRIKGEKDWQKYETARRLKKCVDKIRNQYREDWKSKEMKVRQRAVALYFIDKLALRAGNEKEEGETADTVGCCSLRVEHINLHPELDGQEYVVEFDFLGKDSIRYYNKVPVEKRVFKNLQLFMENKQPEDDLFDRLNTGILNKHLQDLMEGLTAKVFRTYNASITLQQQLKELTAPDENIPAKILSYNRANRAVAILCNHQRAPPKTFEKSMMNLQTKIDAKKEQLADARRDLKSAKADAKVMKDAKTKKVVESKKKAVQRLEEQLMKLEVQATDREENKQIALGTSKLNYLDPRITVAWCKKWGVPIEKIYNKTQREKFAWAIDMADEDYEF

Compound	Ratio IC50 (SGC-7901)	IC50 (KB) [nM]	IC50 (HepG2) [nM]	IC50 [1] [nM]	IC50 [2] [nM]	inhibition [3]
CC[C@@]1(O)C(=O)OCc2c1cc1n(c2=O)Cc2cc3c4c(ccc3nc2-1)O[C@@H]1OCCC[C@H]1C4	4	1230	266	204	255	
CC[C@@]1(O)C(=O)OCc2c1cc1n(c2=O)Cc2cc3c(CSCC(=O)OC)c(O)ccc3nc2-1		12900	3200	3090	9020	
CCSCc1c(O)ccc2nc3c(cc12)Cn1c-3cc2c(c1=O)COC(=O)[C@]2(O)CC		2190	595	282	549	
CC[C@@]1(O)C(=O)OCc2c1cc1n(c2=O)Cc2cc3c(CSC)c(O)ccc3nc2-1		19300	70400	1220	2170	
CC[C@@]1(O)C(=O)OCc2c1cc1n(c2=O)Cc2cc3c4c(ccc3nc2-1)O[C@@H]1OCC[C@H]1C4	4	1710	332	203	182	inactive
CC[C@@]1(O)C(=O)OCc2c1cc1n(c2=O)Cc2cc3cc(O)ccc3nc2-1 [HYDROXYCAMPTOTHECIN]		128	499	181	835	Active
CC[C@@]1(O)C(=O)OCc2c1cc1n(c2=O)Cc2cc3c(CSC(C)(C)C)c(O)ccc3nc2-1		1410	762	1430	3140	
CCCCOC1CCc2c(ccc3nc4c(cc23)Cn2c-4cc3c(c2=O)COC(=O)[C@]3(O)CC)O1 (some centres not stated)		950	145	317	772	inactive
CC[C@@]1(O)C(=O)OCc2c1cc1n(c2=O)Cc2cc3c4c(ccc3nc2-1)OC(OCC(C)C)CC4 (some centres not stated)		1140	387	471	344	
CCCSCc1c(O)ccc2nc3c(cc12)Cn1c-3cc2c(c1=O)COC(=O)[C@]2(O)CC		2170	734	746	2820	
CC[C@@]1(O)C(=O)OCc2c1cc1n(c2=O)Cc2cc3c(CSC(C)C)c(O)ccc3nc2-1		994	351	406	993	Active
CC[C@@]1(O)C(=O)OCc2c1cc1n(c2=O)Cc2cc3c4c(ccc3nc2-1)OC(O)CC4 (some centres not stated)		777	184	567	536	Active
CCOC1CCc2c(ccc3nc4c(cc23)Cn2c-4cc3c(c2=O)COC(=O)[C@]3(O)CC)O1 (some centres not stated)		1480	265	401	413	
CC[C@@]1(O)C(=O)OCc2c1cc1n(c2=O)Cc2cc3c(CN(C)C)c(O)ccc3nc2-1 [TOPOTECAN HYDROCHLORIDE]		2280	4210	1880	2290	
CC[C@@]1(O)C(=O)OCc2c1cc1n(c2=O)Cc2cc3c(CSCCC(=O)O)c(O)ccc3nc2-1		> 100000	89000	30300	40800	inactive
CCN(CC)CCSCc1c(O)ccc2nc3c(cc12)Cn1c-3cc2c(c1=O)COC(=O)[C@]2(O)CC		32500	5090	21900	10400	
